According to PubChem BioAssay (NCI):
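Following 48 hours of exposure in 96-well plates, responses at five concentrations were used to interpolate endpoints linearly. The concentration for 50% growth inhibition is given as GI50. Definition used: TGI = concentration required for complete inhibition of growth.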

Assays:
Assay in all cases: NCI anticancer screen, dose series, 48 h
[1] = test system: UO-31 renal
[2] = test system: CCRF-CEM leukemia
[3] = test system: SW-620 colon
[4] = test system: BT-549 breast
[5] = test system: A549 NSCLC
[6] = test system: ACHN renal
[7] = test system: SK-MEL-2 melanoma
[8] = test system: NCI/ADR-RES ovarian
[9] = test system: TK-10 renal
[10] = test system: MOLT-4 leukemia
[11] = test system: HCT-116 colon
[12] = test system: EKVX NSCLC
[13] = test system: MDA-MB-231 breast
[14] = test system: SF-295 CNS
[15] = test system: U251 CNS
[16] = test system: HOP-92 NSCLC
[17] = test system: SNB-75 CNS
[18] = test system: NCI-H23 lung
[19] = test system: K-562 leukemia
[20] = test system: HCC-2998 colon
[21] = test system: SNB-19 CNS
[22] = test system: NCI-H522 lung
[23] = test system: HL-60(TB) leukemia
[24] = test system: UACC-257 melanoma
[25] = test system: RPMI-8226 leukemia
[26] = test system: T-47D breast
[27] = test system: COLO 205 colon
[28] = test system: NCI-H226 lung
[29] = test system: SF-268 CNS
[30] = test system: SR leukemia
[31] = test system: SK-MEL-28 melanoma
[32] = test system: PC-3 prostate
[33] = test system: HOP-62 NSCLC
[34] = test system: RXF 393 renal
[35] = test system: A498 renal
[36] = test system: IGROV1 ovarian
[37] = test system: NCI-H460 lung
[38] = test system: HS 578T breast
[39] = test system: OVCAR-5 ovarian
[40] = test system: SF-539 CNS
[41] = test system: CAKI-1 renal
[42] = test system: MCF7 breast
[43] = test system: HT29 colon
[44] = test system: OVCAR-4 ovarian
[45] = test system: DU-145 prostate
[46] = test system: UACC-62 melanoma
[47] = test system: SN12C renal
[48] = test system: M14 melanoma
[49] = test system: SK-MEL-5 melanoma
[50] = test system: MALME-3M melanoma
[51] = test system: SK-OV-3 ovarian
[52] = test system: KM12 colon
[53] = test system: OVCAR-8 ovarian
[54] = test system: HCT-15 colon
[55] = test system: 786-0 renal
[56] = test system: MDA-MB-435

Q: `O=C(NCCCNc1cc(-c2cn(-c3ccccc3)nc2-c2cccc(O)c2)ccn1)Nc1cccc(C(F)(F)F)c1` was tested. Which GI50 [1] did it give?
A: The GI50 was 2.1 µM.

Q: What about the TGI [1] of the same compound?
A: The TGI was 10.8 µM.

Q: What about the GI50 [2] of the same compound?
A: Its GI50 is 1.71 µM.

Q: And the TGI [2]?
A: The TGI was 33.3 µM.

Q: And the GI50 [3]?
A: The GI50 was 3.85 µM.

Q: What about the TGI [3] of the same compound?
A: The TGI was 8.31 µM.

Q: And the GI50 [4]?
A: Its GI50 is 3.26 µM.

Q: What about the TGI [4] of the same compound?
A: The TGI was 7.63 µM.

Q: And the GI50 [5]?
A: Its GI50 is 3.35 µM.

Q: What about the TGI [5] of the same compound?
A: The TGI was 11.2 µM.

Q: What about the GI50 [6] of the same compound?
A: Its GI50 is 5.23 µM.

Q: What about the TGI [6] of the same compound?
A: Its TGI is 15.5 µM.

Q: What about the GI50 [7] of the same compound?
A: Its GI50 is 5.29 µM.

Q: What about the TGI [7] of the same compound?
A: The TGI was 11.7 µM.

Q: And the GI50 [8]?
A: Its GI50 is 4.9 µM.

Q: What about the TGI [8] of the same compound?
A: The TGI was 12.8 µM.

Q: What about the GI50 [9] of the same compound?
A: Its GI50 is 5.75 µM.

Q: And the TGI [9]?
A: The TGI was 13.2 µM.

Q: What about the GI50 [10] of the same compound?
A: Its GI50 is 1.67 µM.

Q: What about the TGI [10] of the same compound?
A: Its TGI is 15 µM.

Q: What about the GI50 [11] of the same compound?
A: The GI50 was 1.97 µM.

Q: What about the TGI [11] of the same compound?
A: Its TGI is 6.33 µM.

Q: What about the GI50 [12] of the same compound?
A: The GI50 was 3.5 µM.

Q: And the TGI [12]?
A: Its TGI is 8.45 µM.

Q: And the GI50 [13]?
A: Its GI50 is 2.85 µM.

Q: What about the TGI [13] of the same compound?
A: Its TGI is 7.76 µM.

Q: What about the GI50 [14] of the same compound?
A: Its GI50 is 1.76 µM.

Q: And the TGI [14]?
A: Its TGI is 6.42 µM.

Q: What about the GI50 [15] of the same compound?
A: The GI50 was 2.57 µM.

Q: What about the TGI [15] of the same compound?
A: Its TGI is 7.45 µM.

Q: What about the GI50 [16] of the same compound?
A: Its GI50 is 1.25 µM.

Q: What about the TGI [16] of the same compound?
A: Its TGI is 6.01 µM.

Q: And the GI50 [17]?
A: The GI50 was 0.743 µM.

Q: What about the TGI [17] of the same compound?
A: Its TGI is 4.1 µM.

Q: What about the GI50 [18] of the same compound?
A: The GI50 was 4.34 µM.

Q: What about the TGI [18] of the same compound?
A: Its TGI is 9.34 µM.

Q: And the GI50 [19]?
A: The GI50 was 1.26 µM.

Q: And the TGI [19]?
A: The TGI was 33.3 µM.

Q: What about the GI50 [20] of the same compound?
A: Its GI50 is 1.26 µM.

Q: And the TGI [20]?
A: The TGI was 4.34 µM.

Q: And the GI50 [21]?
A: The GI50 was 3.99 µM.

Q: What about the TGI [21] of the same compound?
A: The TGI was 8.97 µM.

Q: What about the GI50 [22] of the same compound?
A: Its GI50 is 5.12 µM.

Q: What about the TGI [22] of the same compound?
A: The TGI was 11 µM.

Q: What about the GI50 [23] of the same compound?
A: The GI50 was 3.42 µM.

Q: What about the TGI [23] of the same compound?
A: The TGI was 14.5 µM.

Q: And the GI50 [24]?
A: Its GI50 is 4.8 µM.

Q: What about the TGI [24] of the same compound?
A: Its TGI is 10.1 µM.

Q: What about the GI50 [25] of the same compound?
A: Its GI50 is 0.727 µM.

Q: What about the TGI [25] of the same compound?
A: The TGI was 6.12 µM.

Q: And the GI50 [26]?
A: The GI50 was 3.42 µM.

Q: What about the TGI [26] of the same compound?
A: The TGI was 16.7 µM.

Q: And the GI50 [27]?
A: Its GI50 is 2.97 µM.

Q: And the TGI [27]?
A: The TGI was 8.72 µM.

Q: What about the GI50 [28] of the same compound?
A: The GI50 was 4.88 µM.

Q: What about the TGI [28] of the same compound?
A: The TGI was 11.5 µM.

Q: And the GI50 [29]?
A: Its GI50 is 3.26 µM.

Q: What about the TGI [29] of the same compound?
A: Its TGI is 9.69 µM.

Q: And the GI50 [30]?
A: The GI50 was 1.65 µM.

Q: What about the TGI [30] of the same compound?
A: Its TGI is 12.8 µM.

Q: What about the GI50 [31] of the same compound?
A: Its GI50 is 3.48 µM.

Q: What about the TGI [31] of the same compound?
A: The TGI was 7.51 µM.

Q: And the GI50 [32]?
A: The GI50 was 1.79 µM.

Q: What about the TGI [32] of the same compound?
A: Its TGI is 11.2 µM.

Q: What about the GI50 [33] of the same compound?
A: The GI50 was 4.09 µM.

Q: And the TGI [33]?
A: The TGI was 9.59 µM.

Q: What about the GI50 [34] of the same compound?
A: The GI50 was 1.08 µM.

Q: What about the TGI [34] of the same compound?
A: Its TGI is 4.96 µM.

Q: And the GI50 [35]?
A: Its GI50 is 3.17 µM.

Q: And the TGI [35]?
A: The TGI was 7.18 µM.

Q: And the GI50 [36]?
A: Its GI50 is 2.83 µM.

Q: What about the TGI [36] of the same compound?
A: Its TGI is 7.89 µM.

Q: What about the GI50 [37] of the same compound?
A: The GI50 was 3.48 µM.

Q: And the TGI [37]?
A: Its TGI is 8.89 µM.

Q: What about the GI50 [38] of the same compound?
A: The GI50 was 1.34 µM.

Q: And the TGI [38]?
A: Its TGI is 7.74 µM.

Q: What about the GI50 [39] of the same compound?
A: The GI50 was 3.96 µM.

Q: What about the TGI [39] of the same compound?
A: The TGI was 9.71 µM.

Q: What about the GI50 [40] of the same compound?
A: Its GI50 is 2.78 µM.

Q: And the TGI [40]?
A: Its TGI is 7.18 µM.

Q: And the GI50 [41]?
A: The GI50 was 1.9 µM.

Q: And the TGI [41]?
A: The TGI was 12.3 µM.

Q: What about the GI50 [42] of the same compound?
A: The GI50 was 2.73 µM.

Q: And the TGI [42]?
A: The TGI was 9.39 µM.

Q: What about the GI50 [43] of the same compound?
A: Its GI50 is 1.51 µM.

Q: And the TGI [43]?
A: The TGI was 6.19 µM.

Q: And the GI50 [44]?
A: Its GI50 is 2.13 µM.

Q: What about the TGI [44] of the same compound?
A: Its TGI is 7.75 µM.

Q: What about the GI50 [45] of the same compound?
A: The GI50 was 4.8 µM.

Q: And the TGI [45]?
A: The TGI was 11.9 µM.

Q: What about the GI50 [46] of the same compound?
A: Its GI50 is 4.41 µM.

Q: And the TGI [46]?
A: Its TGI is 8.84 µM.

Q: What about the GI50 [47] of the same compound?
A: Its GI50 is 3.65 µM.

Q: What about the TGI [47] of the same compound?
A: Its TGI is 7.91 µM.

Q: And the GI50 [48]?
A: Its GI50 is 2.18 µM.

Q: And the TGI [48]?
A: Its TGI is 6.99 µM.

Q: And the GI50 [49]?
A: Its GI50 is 3.25 µM.

Q: And the TGI [49]?
A: The TGI was 7.16 µM.

Q: And the GI50 [50]?
A: Its GI50 is 1.54 µM.

Q: What about the TGI [50] of the same compound?
A: The TGI was 6.08 µM.

Q: What about the GI50 [51] of the same compound?
A: Its GI50 is 4.49 µM.

Q: What about the TGI [51] of the same compound?
A: Its TGI is 10.1 µM.

Q: What about the GI50 [52] of the same compound?
A: The GI50 was 2.63 µM.

Q: And the TGI [52]?
A: Its TGI is 7.39 µM.

Q: And the GI50 [53]?
A: The GI50 was 3.88 µM.

Q: And the TGI [53]?
A: The TGI was 10 µM.

Q: What about the GI50 [54] of the same compound?
A: The GI50 was 1.06 µM.

Q: What about the TGI [54] of the same compound?
A: Its TGI is 4.32 µM.

Q: And the GI50 [55]?
A: The GI50 was 1.07 µM.

Q: And the TGI [55]?
A: Its TGI is 3.71 µM.

Q: What about the GI50 [56] of the same compound?
A: Its GI50 is 3.41 µM.

Q: And the TGI [56]?
A: Its TGI is 7.57 µM.
